# Measured values as given in patent publication US20200157135A1, “SIDE-CHAIN MODIFIED ERGOSTEROL AND STIGMASTEROL DERIVATIVES AS LIVER X RECEPTOR MODULATORS” (Ospedale San Raffaele srl, priority 2017, published 2020).
# “Also recorded” adds a separate entry of the source.
# How the values were obtained:
# TNFα = test: qPCR of TNFα expression in differentiated U937 cells treated with LPS; format: cell-based, human; conditions: differentiated U937, 6 hours, 10 μM in combination with LPS (100 ng/ml)
# Method: U937 cells differentiated with PMA for 72 hours were treated with LPS (100 ng/ml) in combination with T0901317 (10 μM) or with the title compounds (10 μM). […] (n=3/group). *p<0.05, **p<0.01, ***p<0.001.
# (§1) Quantitative Real-Time-PCR. U937 cell line was differentiated in foam macrophages with phorbol 12-myristate 13-acetate (PMA) 10 ng/ml (Sigma) for 72 hours at 37° C. in […] at the concentration of 3×10^6 cells in 10 ml RPMI 10% FBS. At day 3 nuclear receptor ligands were added for 6 hours. HepG2 cells were treated with the ligands as described by Quinet et al.22 Total RNA was purified by TRIZOL (Invitrogen, Carlsbad, Calif., USA). Reverse transcription was performed incubating 2 μg of total RNA 1 hour at 42° C. with MLV-reverse transcriptase (Promega). Quantitative PCR was performed using Sybr Green Master Mix (Applied Biosystems) and real-time PCR (Viia 7 Real Time PCR System, Applied Biosystems). All PCR reactions were done in triplicate. The comparative Ct method was used to quantify transcripts that were normalized for human GAPDH. the following primer pairs were used: […]
# SREBP1c [1] = test: qPCR of SREBP1c expression in HepG2 cells; format: cell-based, human; conditions: 10 μM
# Method: HepG2 cells were treated with T0901317 (10 μM), 22R—HC (3) (10 μM) or with the tested compound (10 μM). […] (n=3/group). *p<0.05, **p<0.01, ***p<0.001.
# LXR agonists induce the expression of target genes, which are involved in cholesterol homeostasis, particularly in the reverse cholesterol transport pathway.43 Indeed, LXR agonists induce the expression of ABCA1 both in macrophages and in many tissues of the periphery such as the intestine.44 Moreover, ABCA1 regulates cholesterol efflux to APOAI acceptors.45 In the liver, LXR activation promotes the biosynthesis of fatty acids, a process also termed as de novo lipogenesis by inducing the expression of the master regulator of hepatic lipogenesis sterol-regulatory element-binding protein 1C (SREBP-1c), as well as several downstream genes in the SREBP-1c pathway, including steroyl CoA desaturase 1 (SCD1) and fatty acid synthase (FASN).43 Therefore, it was investigated, by quantitative PCR (qPCR), the expression of ABCA1, SREBP1c, FASN, and SCD1, by using RNA from monocytic U937 cells (FIG. 3) and from hepatic HepG2 cells (FIG. 4) stimulated with our compounds, the non-steroidal agonist T0901317 or the endogenous ligand 22R—HC (3) as positive controls. […] 43,22 was evaluated. […]
# Quantitative Real-Time-PCR. […] The comparative Ct method was used to quantify transcripts that were normalized for human GAPDH. the following primer pairs were used: […]
# hLXRβ = target: T1, hLXRβ (Homo sapiens, UniProt P55055); test: luciferase assay with GAL-4 chimeric hLXRβ receptor in human embryonic kidney 293 cells; format: cell-based; conditions: for EC50: GAL4-hLXRβ luciferase, HEK293, dose-response 32-1 μM, mean of three-five independent experiments, read-out: LXRβ EC50 (μM) ± SD; for Emax: HEK293, 24 h, read-out: LXRβ Efficacy (%) ± SD, % of compound effect versus 8 μM of 22R-HC
# T1 sequence (P55055 222-460 limits assumed): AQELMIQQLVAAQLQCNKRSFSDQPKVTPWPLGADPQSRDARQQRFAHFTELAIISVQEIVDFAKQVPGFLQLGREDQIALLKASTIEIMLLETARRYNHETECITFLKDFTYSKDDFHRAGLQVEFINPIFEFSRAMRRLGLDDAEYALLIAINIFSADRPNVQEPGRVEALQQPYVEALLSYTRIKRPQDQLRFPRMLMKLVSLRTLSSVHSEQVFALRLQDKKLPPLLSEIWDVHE
# Method: (§2) All the synthesized compounds were first tested for their ability to activate LXRs by using luciferase assays with GAL-4 chimeric receptors. These were performed by co-transfecting plasmids encoding hLXRα- and β-binding domains fused to GAL-4, with the respective responsive element conjugated with the luciferase reporter gene into the human embryonic kidney 293 cells.
# (§3) Cell Culture and Co-transfection Assays. Human embryonic Kidney 293 cells (American Type Culture Collection) were cultured in Dulbecco's Modified Eagle's medium containing 10% of fetal bovine serum at 37° C. in humidified atmosphere of 5% CO2. HEK293 cells (4×10^4 cells per well) were transiently transfected in 48 well plate with the reporter plasmids pMH100X4-TK-luc (100 ng/well), Renilla (22 ng/well) together with 100 ng/well of pCMX-Gal4-RXR, pCMX-Gal4-PPAR-γ, pCMX-Gal4-PXR, pFA-CMV-FXR pCMX-Gal4-LXR-α or pCMX-Gal4-LXR-β plasmids using X-tremeGENE 9 DNA Transfection Reagent (Roche). Six hours after transfection, the cells were treated with the appropriate compound for 24 hours. Luciferase activities were analyzed by luciferase Dual Reporter Assay Systems (Promega) according to the manufacturer's protocol. GAL4-LXRs, GAL4-PPAR-γ, GAL4-RXR and TK-MHC100-luc plasmids were described in Villablanca et al.49 GAL4-PXR was a kind gift of Dr. Enrique Sainz (The Scripps Research Institute, La Jolla, USA). GAL4-FXR was a kind gift of Dr. Daniel Merk (Goethe-University Frankfurt am Main). The results obtained by luciferase assays and reported in Table 1 are from three to five independent experiments.
# (§4) Statistical analysis. Data are expressed as mean±SEM and were analyzed for significance by ANOVA with Dunnet's multiple comparison tests. The analysis was performed with Prism software. Data in Table 1 are expressed as EC50±SD. In particular, the standard deviations were obtained by calculating the mean of the EC50 of each experiment (three to five independent experiments). The efficacy (%) of the compounds was calculated as the percentage of the compound effect, in terms of LXRα or β activation, versus 8 μM of 22R—HC±SD. The analyses were performed with Prism software.
# SREBP1c [2] = test: qPCR of SREBP1c expression in PMA-differentiated U937 cells; format: cell-based, human; conditions: U937 differentiated with PMA 72 h; 10 μM, 6 hours
# Method: (§5) U937 cells differentiated with PMA for 72 hours were treated with T0901317 (10 μM), 22R—HC (3) or with the tested compound (10 μM). […] (n=3/group). *p<0.05, **p<0.01, ***p<0.001.
# (§6) LXR agonists induce the expression of target genes, which are involved in cholesterol homeostasis, particularly in the reverse cholesterol transport pathway.43 Indeed, LXR agonists induce the expression of ABCA1 both in macrophages and in many tissues of the periphery such as the intestine.44 Moreover, ABCA1 regulates cholesterol efflux to APOAI acceptors.45 In the liver, LXR activation promotes the biosynthesis of fatty acids, a process also termed as de novo lipogenesis by inducing the expression of the master regulator of hepatic lipogenesis sterol-regulatory element-binding protein 1C (SREBP-1c), as well as several downstream genes in the SREBP-1c pathway, including steroyl CoA desaturase 1 (SCD1) and fatty acid synthase (FASN).43 Therefore, it was investigated, by quantitative PCR (qPCR), the expression of ABCA1, SREBP1c, FASN, and SCD1, by using RNA from monocytic U937 cells (FIG. 3) and from hepatic HepG2 cells (FIG. 4) stimulated with our compounds, the non-steroidal agonist T0901317 or the endogenous ligand 22R—HC (3) as positive controls. […] Then, the induction of genes involved in the lipogenesis using the hepatic cell line HepG2. 43,22 was evaluated. […] Over the time, indeed, substantial efforts have been dedicated to the identification of LXR ligands able to turning on ABC transporter genes, without affecting lipogenic genes levels. This task is still one of the major challenge to the discovery of a clinically useful LXR modulator for atherosclerosis.
# as §1
# [3] = system: murine Lewis lung carcinoma cells (LLC); test: growth of LLC tumor cells in vitro; format: cell-based; conditions: 96 hours, 10 μM
# Source text: (§7) We have performed a set of experiments to evaluate whether some LXR modulators, particularly PFM009 (13) and PFM018 (25) influence the growth of the murine Lewis lung carcinoma cells (LLC) in vitro and in vivo.
# ABCA1 [4] = test: qPCR of ABCA1 expression in PMA-differentiated U937 cells; format: cell-based, human; conditions: U937 differentiated with PMA 72 h; 10 μM, 6 hours
# Method: as §5, §6, §1
# hLXRα = target: T2, hLXRα (Homo sapiens, UniProt Q13133); test: luciferase assay with GAL-4 chimeric hLXRα receptor in human embryonic kidney 293 cells; format: cell-based; conditions: for EC50: GAL4-hLXRα luciferase, HEK293, dose-response 32-1 μM, mean of three-five independent experiments, read-out: LXRα EC50 (μM) ± SD; for Emax: HEK293, 24 h, read-out: LXRα Efficacy (%) ± SD; for LXR isoform selectivity profile: LXRα versus LXRβ, GAL4 luciferase assays
# T2 sequence (Q13133 209-447 limits assumed): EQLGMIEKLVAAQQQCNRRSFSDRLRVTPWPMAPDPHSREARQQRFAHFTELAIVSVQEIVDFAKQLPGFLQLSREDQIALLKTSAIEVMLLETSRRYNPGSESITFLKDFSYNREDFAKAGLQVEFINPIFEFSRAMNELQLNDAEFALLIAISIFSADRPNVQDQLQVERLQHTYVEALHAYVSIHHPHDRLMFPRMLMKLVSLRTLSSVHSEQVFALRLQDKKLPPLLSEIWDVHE
# Method: as §2, §3, §4
# SCD1 = test: qPCR of SCD1 expression in PMA-differentiated U937 cells; format: cell-based, human; conditions: U937 differentiated with PMA 72 h; 10 μM, 6 hours
# Method: as §5, §6, §1
# LLC tumor = LLC tumor growth in vivo in C57BL/6 mice; conditions: 1×10^6 LLC cells subcutaneously, 30 mg/Kg/day for five consecutive days from day six
# Method: Then, we tested whether these compounds could influence LLC tumor growth in vivo. To do that, C57BL/6 mice were challenged with 1×10^6 LLC tumor cells subcutaneously. Six days later, tumor-bearing mice were treated with PFM009 or PFM018 (30 mg/Kg/day) for five consecutive days and then evaluated for tumor growth.
# Abca1 [5] = test: qPCR of LXR target gene Abca1 in LLC tumor cells; format: cell-based, murine
# Source text: as §7
# hFXR = test: luciferase assay GAL4-hFXR in human embryonic kidney 293 cells; format: cell-based; conditions: compounds at 10 μM
# Method: Human embryonic kidney 293 cells were co-transfected with GAL4-hRXR (A), GAL4-hPPARγ (B), GAL4-hPXR (C) and GAL4-hFXR (D) expression plasmids together with GAL4 responsive element pMHC100X4-TK-luc and Renilla plasmids. Cells were incubated with vehicle (DMSO), PFMs at the concentration of 10 μM, and the nuclear receptor specific ligands 9cis retinoic acid (100 nM) (A), Rosiglitazone (RSG 100 nM) (B), T0901317 (100 nM) (C) and GW4064 (100 nM) (D) for six hours. The values represent mean±S.D. RLA, relative luciferase activity.
# The selectivity of our compounds within the nuclear receptor superfamily was also evaluated by luciferase assays using GAL4-RXR, -PPARγ, -PXR and -FXR plasmids.
# Cell Culture and Co-transfection Assays. Human embryonic Kidney 293 cells (American Type Culture Collection) were cultured in Dulbecco's Modified Eagle's medium containing 10% of fetal bovine serum at 37° C. in humidified atmosphere of 5% CO2. […] Luciferase activities were analyzed by luciferase Dual Reporter Assay Systems (Promega) according to the manufacturer's protocol. […]
Compound,inhibition of TNFα expression (TNFα),SREBP-1c up-regulation (SREBP1c [1]),EC50 (hLXRβ) [µM],Emax (hLXRβ) [%],SREBP-1c up-regulation (SREBP1c [2]),LLC tumor growth in vitro [3],ABCA1 expression (ABCA1 [4]),EC50 (hLXRα) [µM],Emax (hLXRα) [%],LXR isoform selectivity profile (hLXRα),SCD1 expression (SCD1),LLC tumor growth in vivo (LLC tumor),expression of the LXR target gene Abca1 (Abca1 [5]),FXR activation (hFXR),beta/alfa efficacy ratio (hLXRβ; LXRβ efficacy over LXRα efficacy),LXRα Efficacy (%) ± SD (hLXRα; % of compound effect versus 8 μM of 22R-HC)
"CC[C@@H](C(C)C)[C@H]1O[C@@H]1[C@@H](C)[C@H]1CC[C@H]2[C@@H]3CC=C4C[C@@H](O)CC[C@]4(C)[C@H]3CC[C@]12C [Compound 13, (22R,23R)-22,23-Epoxystigmast-5-ene-3β-ol]",the most active,significant up-regulation of SREBP-1c,3.79 ± 0.82,142 ± 16.8,poor activators of SREBP1c and SCD1,not able to alter LLC tumor growth in vitro,strong induction of ABCA1 expression,2.09 ± 0.57,489 ± 89.1,non-selective and poorly preferential LXRα agonists; also recorded: non-selective ligands; also recorded: non-selective LXR agonists,poor activators of SREBP1c and SCD1,significant control of LLC tumor growth,induced the expression of the LXR target gene Abca1,,,
"CC[C@H](C[C@@H](O)[C@@H](C)[C@H]1CC[C@H]2[C@@H]3CC=C4C[C@@H](O)CC[C@]4(C)[C@H]3CC[C@]12C)C(C)C [Compound 20, (22R)-3β-stigmast-5-ene-3,22-diol]",,,,,poor activators of SREBP1c and SCD1,,strong induction of ABCA1 expression,,,,poor activators of SREBP1c and SCD1,,,strong FXR activation,,
"CC[C@H](C(=O)C[C@@H](C)[C@H]1CC[C@H]2[C@@H]3CC=C4C[C@@H](O)CC[C@]4(C)[C@H]3CC[C@]12C)C(C)C [Compound 25, 3β-Hydroxystigmast-5-ene-23-one]",the most active,,6.02 ± 1.2,~50,poor activators of SREBP1c and SCD1,not able to alter LLC tumor growth in vitro,strong induction of ABCA1 expression,14.5,12.4 ± 4.2,good selectivity for the LXRβ isoform in terms of EC50; also recorded: LXRβ-selective agonist; also recorded: selective LXRβ agonist,poor activators of SREBP1c and SCD1,significant control of LLC tumor growth,induced the expression of the LXR target gene Abca1,,3.7,lowest efficacy at LXRα
